Tests used:
Type in all cases: in vivo, rat
[1] = Body weight of treated rats; details: for Body Weight (after 38 days): mean ± std. dev.
Description: (§1) In the determination, the following groups of rats were employed, each group consisting of ten rats.
(§2) Diabetic rats were CD rats in which diabetes was induced by the injection of streptozotocin into the femoral vein at a dose of 60 mg/kg. Hyperglycemia was confirmed by measuring glucose levels in blood obtained by orbital bleeding. (A standard medical technique for obtaining blood form the orbital sinus is described in "Laboratory Animal Medicine" edited by J. G. Fox et al., Academic Press, Inc., Orlando, Fla., 1984.)
(§3) Dosing was initiated with cyclopeptide compound four days after injection of streptozotocin to induce diabetes in the diabetic rats. Dosing was carried out by administering the cyclopeptide compound in the drinking water at a dose of 50 μg/rat/day.
(§4) The rats were housed two to a box and fed standard rat food and water ad libitum. Blood pressure was measured indirectly with a photoelectric system with a tail cuff containing a built in sensor (Harvard Biosciences,Cambridge, MA). The instrument was calibrated on each day of use with a sphygmomanometer. Six to eight recordings were made for each rat.
(§5) At the beginning of the experiment, the mean weights of the CD rats were 160 grams and the SH rats were 220 grams. The body weights after 38 days may be seen in Table 1. The serum glucose level, measured after 27 days of treatment also may be seen in Table 1.

[2] = test system: spontaneously hypertensive (SH) rats; assay: Systolic blood pressure (tail cuff) in spontaneously hypertensive rats; details: treated SH rats
Description: as §1
Group 4 Spontaneously hypertensive (SH) rats
Group 5 Spontaneously hypertensive rats treated with cyclopeptide compound
SH rats were commercially available spontaneously hypertensive rats.
as §3, §4
The blood pressure measurements of treated and untreated spontaneously hypertensive rats compared with normal rats may be seen in FIG. 2.
FIG. 2 is a graph in which the systolic blood pressure of normal, spontaneously hypertensive and treated spontaneously hypertensive rats are plotted against a period of time in days.

[3] = Serum glucose level of treated rats; details: for Serum Glucose (after 27 days): after 27 days of treatment, mean ± std. dev.
Description: as §1, §2, §3, §4, §5

diabetic rats = assay: Systolic blood pressure (tail cuff) in streptozotocin-diabetic rats; details: treated diabetic rats
Description: as §1
Group 3 Diabetic rats treated with cyclopeptide compound
Normal rats were commercially available laboratory rats identified as CD rats.
as §2
Dosing was initiated with cyclopeptide compound four days after injection of streptozotocin to induce diabetes in the diabetic rats. […]
as §4
Blood pressure measurements were initated 8 days following injection of streptozotocin (4 days after start of treatment).
FIG. 1 is a graph in which the blood pressures of normal, diabetic and treated diabetic rats are plotted against a period of time in days. (Each point is the mean of 7 to 10 rats±standard deviation.)

[4] = diabetic rat or spontaneously hypertensive rat

CC(C)[C@@H]1NC(=O)[C@H](CCCCN)NC(=O)[C@@H](Cc2c[nH]c3ccccc23)NC(=O)[C@H](Cc2ccc(O)cc2)NC(=O)[C@H](C)N(C)C(=O)[C@H](Cc2ccccc2)NC1=O [Compound IA, cyclo-(N-MeAla-Tyr-(D)Trp-Lys-Val-Phe)]
Body Weight (after 38 days) ([1]; Diabetic CD rats (streptozotocin) + Compound IA in drinking water, 50 μg/rat/day, doubled to 100 μg/rat/day on 21st day): 281 ± 63 gms
Body Weight (after 38 days) ([1]; SH rats + Compound IA in drinking water): 285 ± 17 gms
effect on body weight (in words) [1, 4]: no significant effect
reduction in systolic blood pressure ([2]; 10th day of treatment, P=<0.02): 11%
inhibition of blood pressure after the 10th day ([2]; after 10th day, even after increasing dose to 200 μg/rat/day on 40th day): no further inhibition was evident
Serum Glucose (after 27 days) ([3]; Diabetic CD rats (streptozotocin) + Compound IA in drinking water): 352 ± 52 mg %
Serum Glucose (after 27 days) ([3]; SH rats + Compound IA in drinking water, P = <0.05 relative to normal CD): 90 ± 10 mg %
effect on serum glucose level (in words) [3, 4]: no significant effect
reduction in blood pressure (diabetic rats; 33rd day of treatment, 100 μg/rat/day from 21st day, P=<0.005): 18%
reduction in blood pressure (diabetic rats; 38th day of treatment, 100 μg/rat/day from 21st day, P=<0.001): 21%
reduction in blood pressure (diabetic rats; after 17 days of treatment, 50 μg/rat/day in drinking water, P=<0.05): 14%

Reference: patent US4798821A, “Antihypertensive therapy for diabetics” (Merck & Co., Inc., priority 1987, dated 1989)
